Measured values as given in patent publication US5173504A, “Bacteriochlorophyll-a derivatives useful in photodynamic therapy” (Health Research, Inc., priority 1991, dated 1992).

How the values were obtained:
[1] = light absorption of bchla; assay type: physicochemical
Source text: Bchla is essentially identical to the chlorophyll-a of higher plants except that ring B is in the dihydro form and the vinyl group in ring A is converted to an acetyl group. The wavelength absorption maximum of bchla is about 780 nm and the extinction coefficient in this region is quite high (E780= 75,000). This long wavelength absorption is advantageous because light penetrates tissues 2-3 times more effectively at a wavelength nearly 800 nm versus lower wavelengths, e.g., 630 nm.
Bacteriochlorophyll-a, obtained at >90% purity from Porphyrin Products (Logan, UT) was dissolved at a concentration of 5 mg/ml in Tween-80 (Sigma) by stirring for several hours or overnight. The resulting solution was mixed with 9 volumes of Hank's buffer solution with agitation until all of the detergent solution was dissolved. Any remaining particulate matter is removed by filtration and the concentration of the final solution is determined spectrophotometrically using a 1:100 dilution in distilled water (OD780= 87.3 for 1 mg/ml of concentrate). In general, if the initial solution of bchla is conducted carefully, the resulting formulation has a concentration of bchla of 0.5 mg/ml.

stability of bchla = assay type: physicochemical
Source text: Bchla is readily obtained by extraction from bacterial sources, and is available commercially from Porphyrin Products, Logan, UT.

SMT-F tumors = assay: tumor response to photodynamic treatment in mice transplanted with SMT-F tumors; assay type: in vivo, DBA2/HaD mice
Experimental: DBA2/HaD mice were transplanted with SMT-F tumors. When the subcutaneous tumors reached 4.5-5.5 mm in diameter, the mice, in groups of five, were injected intravenously with the bchla solution of Example 1 in doses of 5-30 mg/kg. At a time 1 hour-5 days later, the tumor, previously shaved and depiliated, plus a margin of 2-3 mm was exposed to radiation of a wavelength in the range 630-800 nm using a Spectraphysics argon dye laser with Exciton LDS751 dye, tunable over the 700-800 nm range or a diode laser--e.g., Spectra Diode emitting in the 750-850 nm range or a Xenon arc lamp filtered with an interference filter to pass 90% of the 700 nm light ±60 nm at dose rates of 75-150 mw/cm^2. When the Xenon system was used, mild hyperthermia resulted (42° C. at 160 mW/cm^2). It is not known whether this temperature rise acts synergistically with bchla as has been shown with HpD and its active fraction.
Tumor response is shown in the table of FIG. 1 for the seventh day after light treatment which indicates regression, and at a time point at least 30 days after light treatment, which would indicate cure, if there had been no regrowth.

[2] = cutaneous photosensitivity: response of the foot of the treated mice; assay type: in vivo; details: FIG. 3
Experimental: One of the undesirable side effects of photodynamic therapy using certain compounds is cutaneous photosensitivity unrelated to the target biological substrate. Accordingly, the effect of the treatment on the photosensitivity of the foot of the treated mice was measured. The response of the foot was measured as erythema and/or edema (or loss of skin or further damage).

[3] = uptake and clearance in tumor (extraction, HPLC); assay type: in vivo, DBA/2 Ha Mice
Experimental: (§1) Uptake and clearance of bchla in tumor and liver were measured by extraction of the tumor or liver tissue with 1:1MeOH:CH2 Cl2, followed by HPLC analysis.

[4] = uptake and clearance in liver (extraction, HPLC); assay type: in vivo, DBA/2 Ha Mice
Experimental: as §1

[5] = test system: tumors approximately 1 cm in depth; assay: light penetration: necrotic depth in tumors; assay type: in vivo; details: 20 mg/kg, irradiation after 1 hour, 270 J/cm^2 at 780 nm; histology the day following
Experimental: Comparison was made using bchla at 20 mg/kg with irradiation after 1 hour at 270 J/cm^2 at 780 nm, and DHE at 5 mg/kg after 1 hour at 270 J/cm^2 at 630 nm. Animals with tumors approximately 1 cm in depth were used in the comparison. Histological sections were obtained the day following treatment, fixed and stained.

[6] = Beems et al., Photochemistry and Photobiology (1987); cited from earlier work

Row | SMILES | wavelength absorption maximum [1] | extinction coefficient (E780) ([1]; 780 nm) | OD780 ([1]; for 1 mg/ml of concentrate, Tween-80/Hank's buffer formulation, measured at 1:100 dilution in distilled water) | oxidation stability (stability of bchla) | stability in vivo (stability of bchla; in vivo) | loss of magnesium ion in dilute acid (stability of bchla; presence of dilute acid) | tumor response (SMT-F tumors; 5 mg/kg i.v., irradiated after 2 hours, 670-790 nm range) | tumor response (SMT-F tumors; 10 mg/kg i.v., irradiated 24 hours after injection, 680-780 nm) | sensitivity of the tumor and the skin of the foot over time [2] | composition of material in tumor ([3]; 24 hours after injection) | composition of material in tumor ([3]; 48 hours after injection) | time of partial conversion to bacteriopheophytin in tumor ([3]; tumor) | time of partial conversion to bacteriopheophytin in liver [4] | necrotic depth [5] | water solubility compared to bacteriochlorophyll-a [6]
1 | CCC1C2=Cc3c(C)c4c5[n]3[Mg][n]3c(c(C)c(C(C)=O)c3=CC(=N2)C1C)=CC1=NC(=C5C(C(=O)OC)C4=O)C(CCC(=O)OCC=C(C)CCCC(C)CCCC(C)CCCC(C)C)C1C (stereo not shown) [bchla, Bacteriochlorophyll-a] | about 780 nm | 75,000 | 87.3 | readily oxidized, especially in the presence of light | sufficiently stable in vivo to be an effective phototherapeutic agent | the magnesium ion is readily removed in the presence of dilute acid | good response | good response | the sensitivity of the tumor and the skin of the foot declined concomitantly | demetallized but still contains phytyl | mainly material without phytyl and without Mg | ≥ 24 h | 2 h | approximately 9 mm | 
2 | CCC1C2=Cc3c(C)c4c5[n]3[Mg][n]3c(c(C)c(C(C)=O)c3=CC(=N2)C1C)=CC1=NC(=C5C(C(=O)OC)C4=O)C(CCC(=O)O)C1C (stereo not shown) [bacteriochloro-phyllin-a] |  |  |  |  |  |  |  |  |  |  |  |  |  |  | enhanced water solubility
3 | CCC1c2cc3[nH]c4c(c3C)C(=O)C(C(=O)OC)c4c3nc(cc4[nH]c(cc(n2)C1C)c(C(C)=O)c4C)C(C)C3CCC(=O)O (stereo not shown) [bacteriochlorin-a] |  |  |  |  |  |  |  |  |  |  |  |  |  |  | enhanced water solubility
